Experiments:
rape = test: Test B pre/postemergence rape; format: in vivo, Brassica napus; details: for Plant response rating, Rape: scale of 0 to 10 where 0 is no effect and 10 is complete control
In short: (§1)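 Herbicidal effect was estimated by eye on a ten-point control scale after plants spent twelve to sixteen days in a greenhouse following soil or foliar treatment. Foliar sprays targeted plants at one to four leaves; all doses were formulated in a non-phytotoxic solvent with surfactant.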

morningglory = test: Test B pre/postemergence morningglory; format: in vivo, Ipomoea hederacea; details: for Plant response rating, Morningglory: scale of 0 to 10 where 0 is no effect and 10 is complete control
In short: as §1

soybean = test: Test B pre/postemergence soybean; format: in vivo, Glycine max; details: for Plant response rating, Soybean: scale of 0 to 10 where 0 is no effect and 10 is complete control
In short: as §1

velvetleaf = test: Test B pre/postemergence velvetleaf; format: in vivo, Abutilon theophrasti; details: for Plant response rating, Velvetleaf: scale of 0 to 10 where 0 is no effect and 10 is complete control
In short: as §1

purple nutsedge = test: Test B pre/postemergence purple nutsedge; format: in vivo, Cyperus rotundus; details: for Plant response rating, Nutsedge: scale of 0 to 10 where 0 is no effect and 10 is complete control
In short: as §1

smallflower flatsedge = test: Test B flood test smallflower flatsedge; format: in vivo, Cyperus difformis
In short: (§2)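 Read-out is a visual response score from 0 (no effect) to 10 (complete control), assigned by comparison with untreated controls. Treatment was applied at the 2-leaf stage, and plants stayed in the greenhouse for twelve to sixteen days before scoring.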

pigweed = test: Test B pre/postemergence pigweed; format: in vivo, Amaranthus retroflexus; details: for Plant response rating, Redroot pigweed: scale of 0 to 10 where 0 is no effect and 10 is complete control
In short: as §1

crabgrass = test: Test B pre/postemergence crabgrass; format: in vivo, Digitaria sanguinalis
In short: as §1

wheat = test: Test B pre/postemergence wheat; format: in vivo, Triticum aestivum; details: for Plant response rating, Wheat: scale of 0 to 10 where 0 is no effect and 10 is complete control
In short: as §1

duck salad = test: Test B flood test duck salad; format: in vivo, Heteranthera limosa
In short: as §2

corn = test: Test B pre/postemergence corn; format: in vivo, Zea mays
In short: as §1

rice = test: Test B flood test rice; format: in vivo, Oryza sativa
In short: as §2

giant foxtail = test: Test B pre/postemergence giant foxtail; format: in vivo, Setaria faberii
In short: as §1

wild oat = test: Test B pre/postemergence wild oat; format: in vivo, Avena fatua; details: for Plant response rating, Wild oats: scale of 0 to 10 where 0 is no effect and 10 is complete control
In short: as §1

cocklebur = test: Test B pre/postemergence cocklebur; format: in vivo, Xanthium strumarium
In short: as §1

[1] = Postemergence, Rate 250 g/ha, scale 0 to 10
[2] = Preemergence, Rate 250 g/ha, scale 0 to 10, 0 is no effect, 10 is complete control
[3] = Preemergence, Rate 500 g/ha, scale 0 to 10, 0 is no effect, 10 is complete control
[4] = Rate 62 g/ha, Postemergence, scale 0 to 10 (0 no effect, 10 complete control)
[5] = Rate 125 g/ha, Postemergence, scale 0 to 10, 0 is no effect, 10 is complete control
[6] = Rate 62 g/ha, flood test species, Pre-emergence, visual evaluation after twelve to sixteen days
[7] = Rate 125 g/ha, under heading Pre-emergence, flood test species, visual evaluation after twelve to sixteen days
[8] = Rate 250 g/ha, Pre-emergence (flood test species), scale 0 to 10, 0 is no effect, 10 is complete control
[9] = Rate 500 g/ha, Pre-emergence, flood test species, scale 0 to 10 (0 no effect, 10 complete control)
[10] = Postemergence, Rate 500 g/ha, scale of 0 to 10 where 0 is no effect and 10 is complete control
[11] = Preemergence, Rate 62 g/ha, scale of 0 to 10 where 0 is no effect and 10 is complete control
[12] = Preemergence, Rate 125 g/ha, scale of 0 to 10 where 0 is no effect and 10 is complete control

COC(OC)C(C)n1c(=O)on(C(=O)N(c2ccc(F)cc2)C(C)C)c1=O (stereo not drawn) [Compound 471]
0: Rape plant response rating (rape; [1]) | Rape plant response rating (rape; [4]) | Rape plant response rating (rape; [5]) | Plant response rating, Morningglory (morningglory; Preemergence, Rate 62 g/ha) | Plant response rating, Morningglory (morningglory; Preemergence, Rate 125 g/ha) | Morningglory plant response rating (morningglory; [2]) | Morningglory plant response rating (morningglory; [3]) | Plant response rating, Soybean (soybean; Preemergence, Rate 62 g/ha) | Plant response rating, Soybean (soybean; Preemergence, Rate 125 g/ha) | Soybean plant response rating (soybean; [2]) | Soybean plant response rating (soybean; [3]) | Velvetleaf plant response rating (velvetleaf; [4]) | Nutsedge plant response rating (purple nutsedge; [1]) | Plant response rating, Nutsedge (purple nutsedge; Preemergence, Rate 62 g/ha) | Plant response rating, Nutsedge (purple nutsedge; Preemergence, Rate 125 g/ha) | Nutsedge plant response rating (purple nutsedge; [2]) | Nutsedge plant response rating (purple nutsedge; [3]) | Nutsedge plant response rating (purple nutsedge; [4]) | Nutsedge plant response rating (purple nutsedge; [5]) | Plant response rating, S. Flatsedge (0 to 10 scale, 0 is no effect, 10 is complete control) (smallflower flatsedge; [6]) | S. Flatsedge plant response rating (0 to 10 scale, 0 is no effect, 10 is complete control) (smallflower flatsedge; [7]) | S. Flatsedge plant response rating (smallflower flatsedge; [8]) | S. Flatsedge plant response rating (smallflower flatsedge; [9]) | Redroot pigweed plant response rating (pigweed; [4]) | Redroot pigweed plant response rating (pigweed; [5]) | Wheat plant response rating (wheat; [1]) | Plant response rating, Wheat (wheat; Preemergence, Rate 62 g/ha) | Plant response rating, Wheat (wheat; Preemergence, Rate 125 g/ha) | Wheat plant response rating (wheat; [2]) | Wheat plant response rating (wheat; [3]) | Wheat plant response rating (wheat; [4]) | Wheat plant response rating (wheat; [5]) | Plant response rating, Ducksalad (0 to 10 scale, 0 is no effect, 10 is complete control) (duck salad; [6]) | Ducksalad plant response rating (0 to 10 scale, 0 is no effect, 10 is complete control) (duck salad; [7]) | Ducksalad plant response rating (duck salad; [8]) | Ducksalad plant response rating (duck salad; [9]) | Corn plant response rating (corn; [1]) | Corn plant response rating (corn; [10]) | Plant response rating, Corn (corn; [11]) | Plant response rating, Corn (corn; [12]) | Corn plant response rating (corn; [4]) | Corn plant response rating (corn; [5]) | Plant response rating, Rice (0 to 10 scale, 0 is no effect, 10 is complete control) (rice; [6]) | Rice plant response rating (0 to 10 scale, 0 is no effect, 10 is complete control) (rice; [7]) | Rice plant response rating (rice; [8]) | Rice plant response rating (rice; [9]) | Giant foxtail plant response rating (giant foxtail; [4]) | Wild oats plant response rating (wild oat; [1]) | Wild oats plant response rating (wild oat; [4]) | Wild oats plant response rating (wild oat; [5]) | Cocklebur plant response rating (cocklebur; [1]) | Cocklebur plant response rating (cocklebur; [10]) | Plant response rating, Cocklebur (cocklebur; [11]) | Cocklebur plant response rating (cocklebur; [2]) | Cocklebur plant response rating (cocklebur; [3]) | Cocklebur plant response rating (cocklebur; [4]) | Cocklebur plant response rating (cocklebur; [5])
7: Rape plant response rating (rape; [2]) | Giant foxtail plant response rating (giant foxtail; [1]) | Wild oats plant response rating (wild oat; [2]) | Wild oats plant response rating (wild oat; [3])
6: Velvetleaf plant response rating (velvetleaf; [3])
3: Morningglory plant response rating (morningglory; [4]) | Morningglory plant response rating (morningglory; [5]) | Soybean plant response rating (soybean; [1]) | Plant response rating, Velvetleaf (velvetleaf; Preemergence, Rate 125 g/ha) | Velvetleaf plant response rating (velvetleaf; [2]) | Crabgrass plant response rating (crabgrass; [5]) | Corn plant response rating (corn; [3])
10: Rape plant response rating (rape; [3]) | Plant response rating, Redroot pigweed (pigweed; Preemergence, Rate 62 g/ha) | Plant response rating, Redroot pigweed (pigweed; Preemergence, Rate 125 g/ha) | Redroot pigweed plant response rating (pigweed; [2]) | Redroot pigweed plant response rating (pigweed; [3]) | Plant response rating, Crabgrass (crabgrass; [12]) | Crabgrass plant response rating (crabgrass; [2]) | Crabgrass plant response rating (crabgrass; [3]) | Plant response rating, Giant foxtail (giant foxtail; [11]) | Plant response rating, Giant foxtail (giant foxtail; [12]) | Giant foxtail plant response rating (giant foxtail; [2]) | Giant foxtail plant response rating (giant foxtail; [3])
4: Morningglory plant response rating (morningglory; [1]) | Plant response rating, Wild oats (wild oat; Preemergence, Rate 125 g/ha)
2: Plant response rating, Rape (rape; Preemergence, Rate 62 g/ha) | Plant response rating, Rape (rape; Preemergence, Rate 125 g/ha) | Soybean plant response rating (soybean; [4]) | Soybean plant response rating (soybean; [5]) | Velvetleaf plant response rating (velvetleaf; [1]) | Plant response rating, Velvetleaf (velvetleaf; Preemergence, Rate 62 g/ha) | Velvetleaf plant response rating (velvetleaf; [5]) | Redroot pigweed plant response rating (pigweed; [1]) | Corn plant response rating (corn; [2]) | Plant response rating, Wild oats (wild oat; Preemergence, Rate 62 g/ha)
9: Crabgrass plant response rating (crabgrass; [10]) | Plant response rating, Crabgrass (crabgrass; [11])
8: Crabgrass plant response rating (crabgrass; [1]) | Giant foxtail plant response rating (giant foxtail; [10])
1: Crabgrass plant response rating (crabgrass; [4]) | Giant foxtail plant response rating (giant foxtail; [5])
